This is an account of results in publication PMC12490239, “Combining BET inhibition with SMAC mimetics restricts tumor growth and triggers immune surveillance in preclinical cancer models” (Cell Reports Medicine, 2025).

In general, IC50 refers to the point on the concentration scale where inhibition reaches its midpoint.

What all share (assay): cells
Design in all cases: CellTiter-Glo 2.0 luminescence proliferation/viability assay, single agents, human tumour cell line panel
(ATP-based viability assays read luminescence as a measure of living cells.)

The test system of assay [1] is SNU283. As to conditions: 96 h; single agent; read-out: IC50 SMACm. The procedure:
(§1) The effect of BETi, SMACm alone or in combination cell viability was determined using a 96-h CellTiter-Glo2.0 proliferation assay. Cells were seeded in assay plates and placed at 37°C with 5% CO2 for twenty-four hours before treatment. Compounds were added in triplicate in gradients of increasing concentrations, in case of SMACm ranging between 4.5 nM and 10 μM and in case of BETi between 1.4 nM and 3 μM. DMSO served as control. Cell viability was measured by luminescence analysis using luminescence read on Envision plate readers (PerkinElmer). An additional set of colorectal cancer cell lines was assayed with technical duplicates and experimental triplicates. Cell viability was measured by luminescence analysis using luminescence read on Tecan Plate reader. The effects of drug combinations were analyzed using the Bliss Independence Model.[34] Synergy score was calculated by the average of 3 highest and 3 lowest BLISS Gaps between predicted and measured POC (Percentage of Control) values. To investigate the synergistic interaction between BI 894999 (hereafter, BETi) and BI 891065 (hereafter, SMACm), we evaluated the in vitro anti-tumor effect of the single agents or the combination in a large panel of 151 cancer cell lines of different tissue origin: CRC, gastric cancer, non-small cell lung cancer (NSCLC), and pancreatic carcinoma (Figures 1C–1F). As a mono-agent, SMACm was able to inhibit cell proliferation only in a limited number of tested cell lines (4%, Table S2). Most of the cell lines responded to inhibition by BETi, with sensitivity ranging from 10 to 100 nM (Figure 1C). Bliss Gap analysis, performed to analyze the effect of the BETi+SMACm combination on tumor cell growth (Figures 1D–1F), unveiled potent synergistic activity across the cell models tested (Figure 1E), independent of tumor type (Figure 1F).  Figure 1 The combinatorial effect of BI 894999 and BI 891065 across a panel of human tumor cell lines (A) Selectivity and potency profiles of BI 891065. Top left, structure of BI 891065. Top right, IC50 values for BI 891065 inhibition of cIAP1, cIAP2, and XIAP. Bottom, physicochemical properties of […]. (B) WES (Simple Western System) analysis of cIAP1, cIAP2, and XIAP levels upon treatment of HT-29 cells with indicated concentrations of BI 891065 for 6 h (C) IC50 values determined in cell proliferation assays (n = 151) individually for BETi BI 894999 and SMACm BI 891065. Each point represents a cell line tested. (D) Example of proliferation assay for synergy analysis in LoVo cell line; shown is combination plate map matrix and the cell growth inhibition (CGI) at the indicated concentrations; CGI values < 100%: tumor cell growth, CGI 100%: tumor cell stasis, and CGI > 100%: tumor cell killing. (E) Synergy scores across the tested panel of cell lines obtained using Bliss synergy analysis. (F) Violin plots showing the synergy scores for BETi and SMACm combination across indications. N is the number of cell lines tested in each indication group.

Assay [2] concerns AGS. The settings on record: Homo sapiens, AGS, 96 h; single agent; read-out: IC50 SMACm. Here is the method:
as §1

The subject of assay [3] is HCA7. The settings on record: HCA-7, 96 h; single agent; read-out: IC50 SMACm. The procedure:
as §1

Assay [4] concerns NCI-SNU-1. As to conditions: 96 h; single agent; read-out: IC50 SMACm. Here is the method: as §1
Assay [5] relates to HCC-15. The settings on record: HCC15, 96 h; single agent; read-out: IC50 SMACm. Here is the method: as §1
In assay [6] the test system is Calu-6. The settings on record: Homo sapiens, Calu-6, 96 h; single agent; read-out: IC50 SMACm. The procedure: as §1
Assay [7] concerns HLC-1. The settings on record: 96 h; single agent; read-out: IC50 SMACm. The procedure: as §1
The test system of assay [8] is KP-2. As to conditions: 96 h; single agent; read-out: IC50 SMACm. Here is the method: as §1
The subject of assay [9] is PSN1. As to conditions: Homo sapiens, PSN1, 96 h; single agent; read-out: IC50 SMACm. The procedure:
as §1

For assay [10], the system named is HCA24. As to conditions: 96 h; single agent; read-out: IC50 SMACm. Here is the method: as §1
Assay [11] has as its system NCI-H1838. As to conditions: Homo sapiens, NCI-H1838, 96 h; single agent; read-out: IC50 SMACm. The procedure: as §1
The subject of assay [12] is KLM-1. The settings on record: KLM1, 96 h; single agent; read-out: IC50 SMACm. Here is the method: as §1
Assay [13] has as its system MKN74. As to conditions: Homo sapiens, MKN-74, 96 h; single agent; read-out: IC50 SMACm. Here is the method: as §1
The test system of assay [14] is CAPAN-2. As to conditions: Homo sapiens, Capan-2, 96 h; single agent; read-out: IC50 SMACm. The procedure:
as §1

The test system of assay [15] is C106. As to conditions: 96 h; single agent; read-out: IC50 SMACm. The procedure: as §1

Consider `CN[C@@H](C)C(=O)Nc1ccc(-c2c(-c3cccnc3OC)nc3cc(C)ccn23)c(C#Cc2ccc3c(C)nccc3c2)n1` [SMACm, BI 891065], for which the IC50 in assay [1] is 3.78 µM; in assay [2], 4.06 µM; in [3], 2.83 µM; in assay [4], 6.16 µM; in assay [5], 4.6 µM; in [6], 4.93 µM. Further, the IC50 in [7] amounted to 5.83 µM; in assay [8], 4.62 µM; in [9] it was 7.21 µM; in assay [10], 1.73 µM; in assay [11] it was 4.25 µM; in [12], 3.93 µM. The IC50 was 4.57 µM in [13], 8.59 µM in assay [14] and 1.6 µM in [15].
